In publication PMC2914574 (Journal of neurochemistry, 2010):
Where two headings read alike, the source gives them in different places. Marks after values point to notes of the source that are not given here.

Key:
wild-type hDAT = wild-type hDAT (Homo sapiens, UniProt Q01959); test: displacement of intact-cell [3H]CFT binding, wild-type hDAT; conditions: for fold increase in binding affinity over monovalent DA: relative to dopamine; for Ki: inhibition of [3H]CFT binding, intact HEK-hDAT cells, 21°C, 15 min
WT hDAT [1] = biological target: T1, WT hDAT (Homo sapiens, UniProt Q01959); test: inhibition of [3H]DA uptake in intact HEK-hDAT cells; type: cell-based; conditions: for Uptake Kapp, WT: inhibition of [3H]DA uptake, intact HEK-hDAT cells, 5 min; for Kapp / Ki ratio: uptake Kapp over binding Ki at WT hDAT
WT hDAT [2] = biological target: T1, WT hDAT; conditions: inhibition of [3H]DA uptake; ref Chen et al. (2004); cited from earlier work
hDAT W84L mutant = biological target: T2, hDAT W84L mutant (Homo sapiens, UniProt Q01959, W84L); test: displacement of intact-cell [3H]CFT binding, W84L mutant hDAT
T2 sequence (Q01959 1-620 W84L): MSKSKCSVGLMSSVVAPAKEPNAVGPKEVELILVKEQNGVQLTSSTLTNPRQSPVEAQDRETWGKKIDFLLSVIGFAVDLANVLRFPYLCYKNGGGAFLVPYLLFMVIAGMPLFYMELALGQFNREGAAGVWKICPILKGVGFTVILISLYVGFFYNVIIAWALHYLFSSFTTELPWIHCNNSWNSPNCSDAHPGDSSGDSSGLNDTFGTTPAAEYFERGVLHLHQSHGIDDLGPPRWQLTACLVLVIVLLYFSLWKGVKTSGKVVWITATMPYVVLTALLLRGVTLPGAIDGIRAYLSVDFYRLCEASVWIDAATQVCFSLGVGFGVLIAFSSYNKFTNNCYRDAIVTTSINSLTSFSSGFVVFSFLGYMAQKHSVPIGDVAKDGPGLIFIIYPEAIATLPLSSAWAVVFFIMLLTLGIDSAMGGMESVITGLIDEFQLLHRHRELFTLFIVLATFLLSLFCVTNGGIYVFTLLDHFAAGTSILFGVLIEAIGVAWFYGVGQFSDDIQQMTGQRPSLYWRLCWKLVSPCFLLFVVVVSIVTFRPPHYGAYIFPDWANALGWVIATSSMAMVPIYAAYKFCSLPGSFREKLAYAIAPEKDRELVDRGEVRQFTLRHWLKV

hDAT D313N mutant = hDAT D313N mutant (Homo sapiens, UniProt Q01959, D313N); test: displacement of intact-cell [3H]CFT binding, D313N mutant hDAT
Chain of hDAT D313N mutant (Q01959 whole entry D313N): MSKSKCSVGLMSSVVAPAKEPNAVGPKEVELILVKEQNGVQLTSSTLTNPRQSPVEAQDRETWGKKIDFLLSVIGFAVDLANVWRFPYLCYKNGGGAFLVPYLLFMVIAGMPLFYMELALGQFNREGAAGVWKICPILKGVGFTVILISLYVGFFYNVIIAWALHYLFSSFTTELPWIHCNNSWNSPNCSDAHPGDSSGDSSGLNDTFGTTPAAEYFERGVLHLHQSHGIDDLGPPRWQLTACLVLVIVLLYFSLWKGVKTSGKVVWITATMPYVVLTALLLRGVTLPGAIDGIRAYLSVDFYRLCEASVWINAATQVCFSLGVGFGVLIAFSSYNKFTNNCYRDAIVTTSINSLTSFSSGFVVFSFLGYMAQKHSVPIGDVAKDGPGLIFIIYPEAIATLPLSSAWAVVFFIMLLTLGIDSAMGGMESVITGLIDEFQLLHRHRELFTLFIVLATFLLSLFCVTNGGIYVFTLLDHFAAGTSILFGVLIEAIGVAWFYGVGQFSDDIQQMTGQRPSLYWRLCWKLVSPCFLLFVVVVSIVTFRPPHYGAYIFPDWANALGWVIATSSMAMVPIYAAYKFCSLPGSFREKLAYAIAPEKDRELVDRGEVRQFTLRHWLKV

T1 sequence (Q01959 whole entry): as the sequence (Q01959 whole entry D313N) above, with N313D counted along it
Chain of wild-type hDAT (Q01959 whole entry): as the sequence (Q01959 whole entry D313N) above, with N313D counted along it

Compound	fold increase in binding affinity over monovalent DA (wild-type hDAT; [3H]CFT binding, WT hDAT) [fold]	Ki (wild-type hDAT; read-out: hDAT Binding Ki, WT) [nM]	Uptake Kapp, WT (WT hDAT [1]) [nM]	also measured
Oc1ccc(CCNCCCCCCNCCc2ccc(O)c(O)c2)cc1O [Compound D-361]	61	69.7 ± 9.54	134.9 ± 17.5	–
CC(Cc1ccccc1)NCCCCCCNCCc1ccccc1 [Compound D-370]	–	97.8 ± 10	204.7 ± 9.75	–
CC(CCc1ccc(O)c(O)c1)NCCc1ccc(O)c(O)c1 [Compound D-278, hydroxydobutamine]	74	58 ± 2.9	187.5 ± 30.2	fold increase in affinity compared to dobutamine (wild-type hDAT; [3H]CFT binding, WT hDAT): 4 fold; Ki (wild-type hDAT; read-out: hDAT Binding Ki, WT, listed as hydroxydobutamine): ~58 nM
Oc1ccc(CCNCCCCCCCCNCCc2ccc(O)c(O)c2)cc1O [Compound D-362]	82	51.9	105.7 ± 2.98	–
Oc1ccc(CCNCCCNCCc2ccc(O)c(O)c2)cc1O [Compound D-307]	5	875 ± 71.4	1691 ± 197	–
CCCCCCNCCc1ccc(O)c(O)c1 [Compound D-363, N-hexyldopamine]	2.5	1740 ± 191	3075 ± 223	fold weaker binding than the bivalent D-361 (wild-type hDAT; [3H]CFT binding, WT hDAT): 25 fold; fold loss of activity as inhibitor of [3H]DA uptake relative to dopamine (WT hDAT [1]; WT hDAT): > 7 fold; Kapp / Ki ratio (WT hDAT [1]): 1.8–2.5
COC(=O)[C@H]1[C@@H](c2ccc(F)cc2)C[C@@H]2CC[C@H]1N2C [β-CFT, 2β-carbomethoxy-3β-(4-fluorophenyl)-tropane]	–	–	–	Uptake Kapp, WT (WT hDAT [2]): 30.0 ± 4.0 ^b nM
CC(Cc1ccccc1)NCCc1ccc(O)c(O)c1 [Compound D-279, dopamphetamine]	–	342 ± 5.38	605.3 ± 46.7	fold increase in binding affinity compared to (d)-amphetamine (wild-type hDAT; [3H]CFT binding, WT hDAT): 2 fold
hydroxydopentamine [Compound D-310]	–	91.4 ± 12.5	155.3 ± 18.6	–
CC(Cc1ccccc1)NCCCNCCc1ccc(O)c(O)c1 [Compound D-309]	13	322 ± 15.3	740.8 ± 30.1	–
CN1[C@@H]2CC[C@H]1C[C@@H](OC(c1ccccc1)c1ccccc1)C2 [benztropine, reference compound]	–	–	375.5 ± 6.35	–
COC(=O)[C@H]1[C@@H](OC(=O)c2ccccc2)C[C@@H]2CC[C@H]1N2C [cocaine]	–	–	–	Uptake Kapp, WT (WT hDAT [2]): 246.0 ± 25.0 ^b nM
C[C@H](N)Cc1ccccc1 [(d)-amphetamine, reference compound]	–	–	163.5 ± 4.57	–
Oc1ccc(CCNCCCCCCNCCc2ccccc2)cc1O [dopexamine, reference compound]	–	–	187.5 ± 19.2	Ki (hDAT W84L mutant): 147 ± 5.09 nM; Ki (hDAT D313N mutant): 192 ± 20.6 nM; Ki (wild-type hDAT; hDAT Binding Ki, WT): 96.9 ± 13.7 nM
CC(NC(C)(C)C)C(=O)c1cccc(Cl)c1 (stereo not shown) [bupropion, reference compound]	–	–	576.5 ± 29.1	–
CN[C@@H](C)Cc1ccccc1 [(d)-methamphetamine, reference compound]	–	341 ± 42.7	141.7 ± 18.8	–
CC(Cc1ccccc1)NCCCCCCNCCc1ccc(O)c(O)c1 [Compound D-371]	42	101 ± 13.4	244.5 ± 21.5	fold increase in binding affinity compared to (d)-amphetamine (wild-type hDAT; [3H]CFT binding, WT hDAT): 6 fold
Oc1ccc(CCNCCCCCNCCc2ccc(O)c(O)c2)cc1O [Compound D-347]	51	83.3 ± 8.74	171.5 ± 1.60	–
CC(CCc1ccc(O)cc1)NCCc1ccc(O)c(O)c1 (stereo not drawn) [(dl)-dobutamine, dobutamine, reference compound]	21	–	329.4 ± 16.5	Ki (hDAT W84L mutant): 237 ± 23.9 nM; Ki (hDAT D313N mutant): 257 ± 26.5 nM; Ki (wild-type hDAT; hDAT Binding Ki, WT): 196 ± 14.3 nM
NCCc1ccccc1 [β-phenethylamine, reference compound]	–	3261 ± 21.5	1103 ± 206	–
CCCNC(C)Cc1ccccc1 (stereo not drawn) [(dl)-propylamphetamine, N-propylamphetamine, reference compound]	–	988 ± 67.6	2497 ± 138	Kapp / Ki ratio (WT hDAT [1]): 1.8–2.5
